This passage reports IC50 results from patent US4775695A, “Substituted amidinoalkoxy and amidinoalkylamino indanones and salts thereof” (Merck & Co., Inc., priority 1987, dated 1988).

This assay deals with cerebrocortical cat brain tissue slices. The assay is described as follows: In vitro Cerebrocortical Cat Brain Tissue Slice Assay (inhibition of HCO3^- -stimulated swelling). The following applies: 60 minutes, 37° C., 10 mM HCO3^-, 27 mM K^+. The method, then: See, e.g., Bourke et al., Neurochem. Res., 8, 5 (1983), and Cragoe et al., J. Med. Chem., 25, 567 (1982).
Adult cats of 2-3 kg body weight were employed in tissue slice studies. Prior to sacrifice, the animals were anesthetized with ketamine hydrochloride, 10 mg/kg intramuscularly. Eight (three control, five experimental) pial surface cerebrocortical tissue slices (0.5 mm thick; approximately 150 mg initial fresh weight) were cut successively with a calibrated Stadie-Riggs fresh tissue microtome without moistening and weighed successively on a torsion balance. During the slice preparation all operations except weighing were confined to a humid chamber. Each slice was rapidly placed in an individual Warburg flask containing 2 ml of incubation medium at room temperature. The basic composition of the incubation media was as follows: glucose, 10 mM; CaCl2, 1.3 mM; MgSO4, 1.2 mM; KHSO4, 1.2 mM; HEPES (N-2-hydroxyethylpiperazine-N'-2-ethanesulfonic acid, titrated with NaOH to pH 7.4), 20 mM. Except when adding HCO3^-, the osmolarity of the media was maintained isosmotic (approximately 285 mOsm/L) by reciprocal changes of Na^+ or K^+ to achieve a concentration of K^+ of 27 mM. The basic medium was saturated with oxygen by bubbling pure oxygen through the solution for 30 minutes before use. […]
Following the 60-minute incubation period, tissue slices were separated from incubation medium by filtration, reweighed, and homogenized in 1N HClO4 (10% w/v) for electrolyte analysis. […] Control slice swelling is expressed as microliters per gram initial preswelling fresh weight. The effectiveness of an inhibitor at a given concentration was measured by the amount of HCO3^- -stimulated swelling that occurred in its presence, computed as a percent of the maximum possible and is reported as an IC50. […] Tissue and media Na^+ and K^+ levels were determined by emission flame photometry with Li^+ internal standard; Cl^- levels were determined by amperometric titration. Tissue viability during incubation is monitored by manometry.

pIC50: −log10 of the molar value. Structures can show the parent of a compound that is named as a salt.

`CC1(C2CCCC2)Cc2cc(OCC(=N)N)c(Cl)c(Cl)c2C1=O` (single isomer, unassigned; (+)) [Example 6, (+)[(2-Cyclopentyl-6,7-dichloro-2,3-dihydro-2-methyl-1-oxo-1H-inden-5-yl)oxy]ethanimidamide hydrochloride 1/4 hydrate] had a pIC50 (hydrate) of 7.00.
In turn, `CC1(C2CCCC2)Cc2cc(OCC(=N)N)c(Cl)c(Cl)c2C1=O` (single isomer, unassigned; (-)) [Example 7, (-)[(2-Cyclopentyl-6,7-dichloro-2,3-dihydro-2-methyl-1-oxo-1H-inden-5-yl)oxy]ethanimidamide hydrochloride 1/4 hydrate] had a negative logarithm of the IC50 (pIC50) (hydrate) of 8.30.
With `CC1(C2CCCC2)Cc2cc(OCC(=N)N)c(Cl)c(Cl)c2C1=O` (stereo not drawn) [Example 2, [(2-Cyclopentyl-6,7-dichloro-2,3-dihydro-2-methyl-1-oxo-1H-inden-5-yl)oxy]ethanimidamide hydrochloride hemihydrate], the pIC50 (Felis catus, 1 h) is 8.00.
